This is an account of results in patent US20160289678A1, “USE OF MICRORNA 146-A IN THE DIAGNOSIS, TREATMENT AND PREVENTION OF PICORNAVIRUS INFECTION AND MICRORNA 146-A ANTAGONISTS” (priority 2013, published 2016).

Data set [1] relates to IRAK1 and TRAF6. The data set can be described thus: IRAK1 and TRAF6 Western blot in EV71-infected Caco-2 cells. It counts as cell-based, Human. The settings on record: compared with negative controls. A general note: Immunoblotting shows a protein as a band on a membrane.
For data set [2], the system named is IRAK1 and TRAF6. The data set can be described thus: IRAK1 and TRAF6 Western blot in EV71-infected RD cells. Format: cell-based, Human. As to conditions: antagomiR transfected into host cells followed by virus infection.
Data set [3] relates to IFNβ. The experiment in a line: IFNβ mRNA expression in EV71-infected RD cells by real-time RT-PCR. It counts as cell-based, Human. As to conditions: antagomiR-146a transfectants, EV71 infection. On the technique in general: In qPCR the cycle at which signal appears reflects the starting amount.
A further data set relates to TRAF6 and IRAK1. The data set can be described thus: TRAF6 and IRAK1 in mEV71-infected MEF cells. Format: cell-based. As to conditions: MEF cells transfected, then mEV71 infection; vs antagomiR-NC. From the text: MEF cells were infected with mEV71, followed by quantification of miR-146a using real-time RT-PCR (n=3). MI, mock infection. * P-value <0.05 as compared with mock infection. (b) mEV71 infection suppressed IRAK1 and TRAF6 expressions in protein level in MEF cells. (c) Predicted mus miR-146a BSs within mus IRAK1 and TRAF6 3′UTRs (the first nucleotide following the stop codon was designated as +1). (d) The effect of the ectopic miR-146a on the endogenous IRAK1 and TRAF6. MEF cells were transfected with the miR-146a overexpressing vector or negative control and assayed for IRAK1 and TRAF6 and for miR-146a by western blot and real-time RT-PCR, respectively (n=3). MT, mock transfection; NC, negative control. (e) AntagomiR-146a restored mEV71-induced suppression of TRAF6 and IRAK1 in MEF cells. MEF cells were transfected with antagomiR-146a or antagomiR-NC followed by mEV71 infection. All data presented are mean±s.d. and all P-values are calculated by Student's t-test.

The subject of the next data set is IFNβ promoter. The experiment in a line: IFNβ promoter luciferase assay in EV71-infected RD cells. It counts as cell-based, Human. As to conditions: henceforth 4 h.p.i., compared with negative control or mock transfection. The procedure: Luciferase Assay. All transfections were carried out in triplicate in 96-well plates. RD cells (1×10^4 per well) were seeded 24 h prior to transfection. The luciferase reporter constructs along with the control plasmids (pRL-TK Vector; Promega) were co-transfected into cells at the DNA ratio 5:1 in the presence of pSilencer miRNA expressing vectors (Life Technologies) as indicated by Lipofectamine LTX reagent (Life Technologies). After 48 h incubation, the Dual-Glo luciferase substrate (Promega) was added to each well and the luminescent signals were measured by Victor3 multilabel counter (PerkinElmer) according to the manufacturer's instructions. For IFNβ promoter assays, the reporter constructs were co-transfected with antagomiR-NC or antagomiR-146a into RD cells prior to virus infection. After 24 h incubation, all transfectants were infected with EV71 and assayed at indicated time points. The activity of Renilla luciferase was used as an internal control to normalize transfection efficiency.

A further data set relates to miR-146a. The data set can be described thus: miR-146a expression in organs of mEV71-infected mice by real-time RT-PCR. It counts as in vivo, C57BL/6 mice. As to conditions: treatment at 0 and 1 d.p.i.; particularly intestine, muscle and lung; vs mock infection / negative control. From the text:
(§1) The sequence of LNA antagomiR-146a used in the example is 5′-[…]-3′ (SEQ ID NO:20). Even though the importance of miR-146a in EV71 pathogenesis was clearly elucidated by using miR-146a^−/− mice model, however, the therapeutic potential of miR-146a silencing should be practically evaluated in EV71 infection mouse model. LNA antagomiR-146a, designed locked nucleic acid, was first injected intraperitoneally to evaluate the potential adverse events caused by LNA antagomiRs. […] After making sure the safety of LNA antagomiRs, we next introduced LNA AntagomiR-146a into wild-type mice before or after virus infection as indicated and monitored clinical symptoms of mice daily. […] To verify whether attenuation of virus-induced miR-146a by LNA antagomiR-146a could restore the expression of miR-146a targets, IRAK1 and TRAF6 in assayed organs were measured by Western blot.
(§2) Individual Real-Time RT-PCR. Quantification of miR-146a, Homo RNU6B, mus U6 snRNA , mus IFNβ, and mus β-actin were performed using TaqMan microRNA individual assays or TaqMan gene expression assays (000468, 001093, 001973, Mm00439546_s1 and Mm00607939_s1; Life Technologies) according to the manufacturer's instructions. […] The threshold cycle (CT) is defined as the fractional cycle number at which the fluorescence passes the fixed threshold. […]
(§3) Mouse-adapted EV71 and LNA AntagomiRs Administration. […] The survival of mice was monitored daily. […]

For data set [4], the system named is IRAK1 and TRAF6. The data set can be described thus: IRAK1 and TRAF6 expression in organs of mEV71-infected mice by Western blot. As to conditions: specifically heart, lung and muscle. Format: in vivo, C57BL/6 mice.
Excerpt: as §1
Western Blot. Cells or tissues were harvested in RIPA lysis buffer [50 mM Tris-HCl (pH 7.4), 150 mM NaCl, 1 mM EDTA, 1% Triton X-100, 0.1% SDS, 1% sodium deoxycholate, 1 mM PMSF, and protease inhibitor cocktail], and the protein concentration was measured by the BCA protein assay (BioRad). […]
Mouse-adapted EV71 and LNA AntagomiRs Administration. […] The survival of mice was monitored daily. […] The animals were monitored daily, and clinical signs, weight and mortality were recorded. […]

Data set [5] can be described thus: Potential adverse events of LNA antagomiRs: HE staining and blood chemistry (liver, kidney, serum). It counts as in vivo, mice. The settings on record: intraperitoneal injection.
Excerpt: as §1
Mouse-adapted EV71 and LNA AntagomiRs Administration. […] The survival of mice was monitored daily. […] The animals were monitored daily, and clinical signs, weight and mortality were recorded. […] For LNA antagomiRs injection, wild-type mice were injected with LNA antagomiR-146a (1.2 mg/kg) or LNA antagomiR negative control (1.2 mg/kg) through the intraperitoneal route before or after virus infection as indicated and monitored daily. […]

The subject of data set [6] is IFNβ. The data set can be described thus: IFNβ expression in EV71-infected mice by real-time RT-PCR. Format: in vivo, C57BL/6 mice. As to conditions: EV71-infected wild-type mice treated at 0 and 1 d.p.i., vs mock infection and negative control.
Excerpt: as §1, §2, §3

The next data set relates to mEV71. The experiment in a line: LNA antagomiR injection in EV71 infection mouse model: mice survival. Format: in vivo, C57BL/6 mice.
Excerpt: as §1
Mouse-adapted EV71 and LNA AntagomiRs Administration. C57BL/6 mice were provided by the Knockout Mouse Core Laboratory of National Taiwan University Center of Genomic Medicine, housed in specific pathogen-free animal rooms, and treated according to guidelines from the National Taiwan University College of Medicine and College of Public Health Institutional Animal Care and Use Committee (IACUC). Mouse-adapted EV71 (mEV71) was established referring to a report published by Wang, Y. F. in 2004. mEV71 was generated after four serial passages in neonate mice started from parental human EV71 Parental human EV71 was injected intraperitoneally and next generation mEV71, called 1st mEV71, was isolated from neonate mice brain tissue at 3 d.p.i. The isolated 1st mEV71 was then propagated in RD cells. The passage procedures were performed four times. To determine the 50% lethal dose (LD50), seven-day-old wild-type C57BL/6 mice were fed with indicated PFUs of mEV71. The survival of mice was monitored daily. For wild-type C57BL/6 mice and miR-146a−/− C57BL/6 mice inoculation, each group (n=9 to 13) housed in the same cage was infected with indicated PFUs of mEV71 through the oral route, and the control group was fed with culture medium. The animals were monitored daily, and clinical signs, weight and mortality were recorded. All mouse tissues were obtained from scarified mice with significant clinical illness signs or at 3 d.p.i. if mice had no significant illness signs. The tissues were further assayed for real-time RT-PCR, Western blot, plaque assay, immunohistochemistry staining, and so on. For LNA antagomiRs injection, wild-type mice were injected with LNA antagomiR-146a (1.2 mg/kg) or LNA antagomiR negative control (1.2 mg/kg) through the intraperitoneal route before or after virus infection as indicated and monitored daily. The institutional animal care and use committee (IACUC) approved all animal protocols.

“Also recorded” adds a separate entry of the source.

Take “antagomiR-146a: specific antagomiR (Life Technologies) transfected into cells to neutralize virus-induced miR-146a (antisense AACCCATGGAATTCAGTTCTCA; LNA-modified, pattern not given here)”: the “IRAK1 and TRAF6 expression” value with IRAK1 and TRAF6 [1] is “restored”; with IRAK1 and TRAF6 [1] (listed as AntagomiR-146a) it was “restores”; with IRAK1 and TRAF6 [2], “restored”; with IRAK1 and TRAF6 [2] (listed as AntagomiR-146a), “recovered remarkably”. Moreover, the “IFNβ mRNA expression” value was “increased dramatically” in the data set on IFNβ [3] and “eliminated the suppression” in the data set on IFNβ [3] (listed as AntagomiR-146a). Further, the “mEV71-induced suppression of TRAF6 and IRAK1” value with TRAF6 and IRAK1 is “restored”. The values for the IFNβ promoter activity entry with IFNβ promoter and with IFNβ promoter (listed as AntagomiR-146a) were “attenuated” and “restored”, respectively.

Regarding “5′-AACCCATGGAATTCAGTTCTCA-3′ (LNA-modified, pattern not given here) [LNA antagomiR-146a, designed locked nucleic acid miR-146a antagonist, 22 nucleotides]”, the “virus-induced miR-146a expression” value with miR-146a was “neutralized; also recorded: dramatically suppressed”. Also, the “IRAK1 and TRAF6 expression” value in the data set with IRAK1 and TRAF6 [4] is reported as “restored”. Besides, the “pathological changes (HE staining and blood chemistry of liver, kidney, serum)” value in data set [5] is recorded as “no significant pathological changes”. The figures for the IFNβ expression result with IFNβ [6] and with IFNβ [6] (listed as LNA is antagomiR-146a) were “regain of IFNβ production” and “induced”, respectively. Moreover, the survival is on record as 80% in the data set with mEV71 (injection 1 hour before virus infection (0 d.p.i.), 1.2 mg/kg intraperitoneal, 2*10^8 PFU mEV71); 70% with mEV71 (injection at 1 d.p.i., 1.2 mg/kg intraperitoneal, 2*10^8 PFU mEV71); 56% in the data set with mEV71 (injection at 2 d.p.i., 1.2 mg/kg intraperitoneal); “did not improve mice survival” with mEV71 (injection at 3 d.p.i.). In addition, the survival probability result in the data set on mEV71 (intraperitoneal, injected before (0 d.p.i.) or after (1 and 2 d.p.i.) virus infection) is on record as “improves survival probability”.
